The text below walks through data of article PMC4130425, “Therapeutic drug monitoring of voriconazole: a case report of multiple drug interactions in a patient with an increased CYP2C19 activity” (AIDS Research and Therapy, 2014).

On the set-up of data set [1]: method as in PMID 22751544. Particulars: target trough range; cited from earlier work.
For data set [2] the following is noted: human, in vivo. On the procedure:
The patient was genotyped for CYP2C19.
Time course of (A) voriconazole i. v. dosage administration, (B) comedication with esomeprazole or ranitidine and (C) associated antiretroviral therapy. Voriconazole plasma trough concentrations. qd: once a day; b.i.d.: Twice a day.
Ranitidine was replaced by esomeprazole 40 mg IV bid.

A further data set deals with T1, CYP2C19 (Homo sapiens, UniProt P33261).
T1 construct: endogenous in cells; host or cells: patient in vivo (endogenous enzyme)
T1 sequence (P33261 whole entry): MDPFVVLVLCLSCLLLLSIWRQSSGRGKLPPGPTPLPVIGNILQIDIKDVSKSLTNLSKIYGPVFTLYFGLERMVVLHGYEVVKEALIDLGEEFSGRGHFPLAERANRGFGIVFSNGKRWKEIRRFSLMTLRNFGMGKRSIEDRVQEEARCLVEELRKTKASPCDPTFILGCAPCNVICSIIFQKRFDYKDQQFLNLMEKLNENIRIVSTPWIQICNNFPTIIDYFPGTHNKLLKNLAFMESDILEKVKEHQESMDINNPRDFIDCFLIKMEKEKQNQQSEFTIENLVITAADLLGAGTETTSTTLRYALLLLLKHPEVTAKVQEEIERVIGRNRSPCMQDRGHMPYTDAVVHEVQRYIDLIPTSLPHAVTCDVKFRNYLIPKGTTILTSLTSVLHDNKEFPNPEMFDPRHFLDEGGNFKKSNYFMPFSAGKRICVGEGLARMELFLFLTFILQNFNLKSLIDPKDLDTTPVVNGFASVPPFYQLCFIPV
Put plainly: CYP2C19 phenotyping with 2 mg omeprazole (omeprazole metabolic ratio). The data set is classed as in vivo. Particulars: while on CYP2C19 inhibitor esomeprazole, cut-off = 5, showed decreased CYP2C19 activity.

Like-named read-outs stand apart in the source and are kept apart here. A value given as a limit tells only on which side of the number the result lay.

With `C[C@@H](c1ncncc1F)[C@](O)(Cn1cncn1)c1ccc(F)cc1F` [Voriconazole], in data set [1], the “Voriconazole C0 therapeutic range” value was 1.0 to 5.0 µg/mL. In addition, the “Voriconazole first trough concentration (C0)” value in data set [2] (female) was less than 1.0 µg/mL. The “Voriconazole C0 versus therapeutic range” value in data set [2] is “below the therapeutic range”; in data set [2] (2.5 mg/kg), “within the therapeutic range”.

Take `COc1ccc2[nH]c([S+]([O-])Cc3ncc(C)c(OC)c3C)nc2c1` (centres unmarked) [omeprazole]: the omeprazole metabolic ratio at CYP2C19 was found to be 10.5.
